Experimental data from article PMC7270110, “Labeled oxytocin administered via the intranasal route reaches the brain in rhesus macaques” (Nature Communications, 2020).

Test: Brain tissue concentration of endogenous OT (d0OT) by LC-MS/MS (terminal experiment)
Assay type: in vivo, rhesus macaques (Macaca mulatta)
Conditions: for BRAIN OT concentration (endogenous): LC-MS/MS; for Concentrations of endogenous brain oxytocin (OT): molarity calculated for extracellular fluid volume
Protocol: Monkeys were divided into three groups, each with two monkeys; each group received the following in a terminal study at the 5th week: Group 1 (Monkeys ID# 1 and ID# 5) received 40 IU of d5OT IN, Group 2 received 80 IU of d5OT IN (Monkeys ID# 2 and ID# 4) and Group 3 received 80 IU of d5OT IV (Monkeys ID# 3 and ID# 6). Animals were perfused on average, 140 ± 7 (mean ± SD) min after d5OT administration (range = 135–149 min) (Table 4). Plasma and CSF were drawn just before administration of d5OT, at the midpoint between d5OT administration and perfusion (~60 min post-d5OT administration), and just before perfusion.
Brain tissue distribution of d5OT, as well as the endogenous concentrations of OT (d0OT), were measured in the following 12 brain regions: cerebellum, brainstem, striatum, amygdala, thalamus, visual cortex, insular cortex, hypothalamus, hippocampus, mPFC (Brodmann areas 32,25,24), dPFC (Brodmann areas 46,9,10), and OFC (Brodmann areas 14,13,12) (Tables 1, 2 and 3).
Brain tissue sample preparation: Samples (~1.5 mg per sample) were individually weighed and placed into 12 mm × 75 mm glass tubes containing 1.5 ml ice-cold 1 M acetic acid and 30 µl of OT-d10 internal standard. Tissues were homogenized on ice and the resulting homogenates were poured into individual 15 ml polystyrene tubes. The original glass tube was rinsed with 1 ml acetonitrile, and this rinse was added to the appropriate 15 ml polystyrene tube containing the homogenate. After all homogenizations were complete, 3 ml acetonitrile was added to each tube and extraction proceeded, as described for the plasma and CSF samples.
LC–MS/MS instrument parameters: Microtiter plates were prepared, as described above, and loaded onto a SIL-30ACMP autosampler set at 4 °C (Shimadzu). Forty microliters of each standard, QC or sample were injected onto an ACE Excel 2 C18-PFP 50 mm × 2.1 mm column (Advanced Chromatography Technologies, LTD, Aberdeen, Scotland) at 50 °C using reversed-phase chromatography. Mobile phase A was 0.1% formic acid in water and mobile phase B was 0.1% formic acid in ACN. The LC time gradient was created using two Nexera LC-30AD pumps (Shimadzu) running at 0.5 ml/min. Chromatography for serum and CSF samples began at 10% B and ended at 16% B at 3.6 min. One minute at 60% B was then required to wash the column, and the pumps re-equilibrated at 10% B for an additional 1.7 min (total run time ~6 min). Outside of the 1.55–3.55 min window during which OT eluted, a divert valve sent the LC effluent to waste.
Heated electrospray […] in positive mode, with scheduled multiple reaction monitoring (MRM) on a Shimadzu LCMS-8050, was used for detection of OT. The interface temperature was 270 °C and heat block temperature was 170 °C. Gas was supplied by a Peak Genius 1051 nitrogen and air generator (Peak Scientific, Inchinnan, UK). Nitrogen gas was used for nebulizing (1 L/min) and drying (8.2 L/min), while air was used for heating (7.8 L/min). A capillary B needle was used in the interface. Needle protrusion was set to 1.25 mm and probe distance was set to 1.0 mm; both were determined empirically. Argon (Airgas, Radnor, PA) was used for the collision-induced dissociation at 330 kPa. The MS/MS conditions for OT were optimized using the automated MRM optimization procedure in LabSolutions software (Shimadzu). We collected two MRM transitions each, for d0OT (1007.40 > 723.40 and 1007.40 > 285.30), d5OT (1012.00 > 723.40 and 1012.00 > 290.35), and d10OT (1017.70 > 723.35 and 1017.70 > 295.40); the first transition listed in each case was used for quantitation, while the second was used as a reference ion. Retention times for d0OT, d5OT, and d10OT were 3.290, 3.270, and 3.253 min, respectively.
The sensitivities of each assay within the method were determined by the lowest and highest concentration calibrators in the calibration curve. The lower limit of quantitation (LLOQ) for d0OT was 10 pg/ml (4 pg/col); the LLOQ for d5OT was 100 pg/ml (40 pg/col). […]

- BRAIN OT concentration (endogenous) (Insular Cortex, after d5OT 40 IU IN, monkey #5 (F), perfused 138 min post-dose): 0.30 pg/mg
- BRAIN OT concentration (endogenous) (Insular Cortex, after d5OT 80 IU IN, monkey #4 (M), perfused 135 min post-dose): 0.06 pg/mg
- BRAIN OT concentration (endogenous) (Insular Cortex, after d5OT 80 IU IV, monkey #3 (F), perfused 149 min post-dose): 0.16 pg/mg
- Concentrations of endogenous brain oxytocin (OT) (OFC, 40 IN, monkey #1 (F)): 1e-09 M
- Concentrations of endogenous brain oxytocin (OT) (OFC, 40 IN, monkey #5 (F)): 5e-09 M
- Concentrations of endogenous brain oxytocin (OT) (OFC, 80 IN, monkey #2 (M)): 2.2e-09 M
- Concentrations of endogenous brain oxytocin (OT) (OFC, 80 IN, monkey #4 (M)): 9e-09 M
- Concentrations of endogenous brain oxytocin (OT) (OFC, 80 IV, monkey #3 (F)): 2e-09 M
- BRAIN OT concentration (endogenous) (OFC, after d5OT 40 IU IN, monkey #1 (F), perfused 148 min post-dose): 0.22 pg/mg
- BRAIN OT concentration (endogenous) (OFC, after d5OT 40 IU IN, monkey #5 (F), perfused 138 min post-dose): 0.96 pg/mg
- BRAIN OT concentration (endogenous) (OFC, after d5OT 80 IU IN, monkey #2 (M), perfused 136 min post-dose): 0.40 pg/mg
- BRAIN OT concentration (endogenous) (OFC, after d5OT 80 IU IN, monkey #4 (M), perfused 135 min post-dose): 1.59 pg/mg
- BRAIN OT concentration (endogenous) (OFC, after d5OT 80 IU IV, monkey #3 (F), perfused 149 min post-dose): 0.44 pg/mg
- Concentrations of endogenous brain oxytocin (OT) (Striatum, 40 IN, monkey #1 (F)): 3e-09 M
- Concentrations of endogenous brain oxytocin (OT) (Striatum, 40 IN, monkey #5 (F)): 7e-09 M
- Concentrations of endogenous brain oxytocin (OT) (Striatum, 80 IN, monkey #2 (M)): 9e-09 M
- Concentrations of endogenous brain oxytocin (OT) (Striatum, 80 IN, monkey #4 (M)): 9.7e-08 M
- Concentrations of endogenous brain oxytocin (OT) (Striatum, 80 IV, monkey #3 (F)): 7.9e-08 M
- Concentrations of endogenous brain oxytocin (OT) (Striatum, 80 IV, monkey #6 (F)): 8.6e-08 M
- BRAIN OT concentration (endogenous) (Striatum, after d5OT 40 IU IN, monkey #1 (F), perfused 148 min post-dose): 0.63 pg/mg
- BRAIN OT concentration (endogenous) (Striatum, after d5OT 40 IU IN, monkey #5 (F), perfused 138 min post-dose): 1.20 pg/mg
- BRAIN OT concentration (endogenous) (Striatum, after d5OT 80 IU IN, monkey #2 (M), perfused 136 min post-dose): 1.58 pg/mg
- BRAIN OT concentration (endogenous) (Striatum, after d5OT 80 IU IN, monkey #4 (M), perfused 135 min post-dose): 17.81 pg/mg
- BRAIN OT concentration (endogenous) (Striatum, after d5OT 80 IU IV, monkey #3 (F), perfused 149 min post-dose): 14.45 pg/mg
- BRAIN OT concentration (endogenous) (Striatum, after d5OT 80 IU IV, monkey #6 (F), perfused 135 min post-dose): 15.82 pg/mg
- Concentrations of endogenous brain oxytocin (OT) (Thalamus, 40 IN, monkey #1 (F)): 2.4e-08 M
- Concentrations of endogenous brain oxytocin (OT) (Thalamus, 40 IN, monkey #5 (F)): 4e-08 M
- Concentrations of endogenous brain oxytocin (OT) (Thalamus, 80 IN, monkey #2 (M)): 6e-09 M
- Concentrations of endogenous brain oxytocin (OT) (Thalamus, 80 IN, monkey #4 (M)): 1.7e-08 M
- Concentrations of endogenous brain oxytocin (OT) (Thalamus, 80 IV, monkey #3 (F)): 2.1e-08 M
- Concentrations of endogenous brain oxytocin (OT) (Thalamus, 80 IV, monkey #6 (F)): 1.55e-07 M
- BRAIN OT concentration (endogenous) (Thalamus, after d5OT 40 IU IN, monkey #1 (F), perfused 148 min post-dose): 4.39 pg/mg
- BRAIN OT concentration (endogenous) (Thalamus, after d5OT 40 IU IN, monkey #5 (F), perfused 138 min post-dose): 7.31 pg/mg
- BRAIN OT concentration (endogenous) (Thalamus, after d5OT 80 IU IN, monkey #2 (M), perfused 136 min post-dose): 1.02 pg/mg
- BRAIN OT concentration (endogenous) (Thalamus, after d5OT 80 IU IN, monkey #4 (M), perfused 135 min post-dose): 3.09 pg/mg
- BRAIN OT concentration (endogenous) (Thalamus, after d5OT 80 IU IV, monkey #3 (F), perfused 149 min post-dose): 3.85 pg/mg
- BRAIN OT concentration (endogenous) (Thalamus, after d5OT 80 IU IV, monkey #6 (F), perfused 135 min post-dose): 28.34 pg/mg
- Concentrations of endogenous brain oxytocin (OT) (dPFC, 40 IN, monkey #5 (F)): 1e-09 M
- Concentrations of endogenous brain oxytocin (OT) (dPFC, 80 IN, monkey #4 (M)): 1e-09 M
- Concentrations of endogenous brain oxytocin (OT) (dPFC, 80 IV, monkey #3 (F)): 2e-09 M
- BRAIN OT concentration (endogenous) (dPFC, after d5OT 40 IU IN, monkey #5 (F), perfused 138 min post-dose): 0.16 pg/mg
- BRAIN OT concentration (endogenous) (dPFC, after d5OT 80 IU IN, monkey #4 (M), perfused 135 min post-dose): 0.20 pg/mg
- BRAIN OT concentration (endogenous) (dPFC, after d5OT 80 IU IV, monkey #3 (F), perfused 149 min post-dose): 0.27 pg/mg
- BRAIN OT concentration (endogenous) (mPFC, after d5OT 40 IU IN, monkey #1 (F), perfused 148 min post-dose): 0.86 pg/mg
- BRAIN OT concentration (endogenous) (mPFC, after d5OT 40 IU IN, monkey #5 (F), perfused 138 min post-dose): 0.88 pg/mg
- BRAIN OT concentration (endogenous) (mPFC, after d5OT 80 IU IN, monkey #4 (M), perfused 135 min post-dose): 0.45 pg/mg
SMILES: CC[C@H](C)[C@@H]1NC(=O)[C@H](Cc2ccc(O)cc2)NC(=O)[C@@H](N)CSSC[C@@H](C(=O)N2CCC[C@H]2C(=O)N[C@@H](CC(C)C)C(=O)NCC(N)=O)NC(=O)[C@H](CC(N)=O)NC(=O)[C@H](CCC(N)=O)NC1=O [OT, oxytocin]
